Reference: ChEMBL document CHEMBL1151084, “Synthesis and biological properties of quaternized N-methylation analogs of D-Arg-2-dermorphin tetrapeptide” (Bioorg Med Chem Lett, 1994)
pIC50, pKi: −log10 of the molar value. Where a SMILES comes first, the peptide text is derived from it.

How the values were obtained:
Mus musculus [1] = assay: In vivo antinociceptive effect in mice by PBQ writhing test upon subcutaneous administration; Range is (0.88-1.56); type: functional; conditions: sc
Cavia porcellus = species on record: Cavia porcellus; assay: In vitro bioactivity on electrically induced smooth muscle contraction of guinea pig ileum by GPI assay; type: functional
[2] = biological target: Delta-type opioid receptor (Rattus norvegicus, UniProt P33533); assay: Binding affinity against delta-opioid receptor by using [3H]DADLE as radioligand in rat brain; type: tissue-based
Delta-type opioid receptor, sequence (P33533 whole entry): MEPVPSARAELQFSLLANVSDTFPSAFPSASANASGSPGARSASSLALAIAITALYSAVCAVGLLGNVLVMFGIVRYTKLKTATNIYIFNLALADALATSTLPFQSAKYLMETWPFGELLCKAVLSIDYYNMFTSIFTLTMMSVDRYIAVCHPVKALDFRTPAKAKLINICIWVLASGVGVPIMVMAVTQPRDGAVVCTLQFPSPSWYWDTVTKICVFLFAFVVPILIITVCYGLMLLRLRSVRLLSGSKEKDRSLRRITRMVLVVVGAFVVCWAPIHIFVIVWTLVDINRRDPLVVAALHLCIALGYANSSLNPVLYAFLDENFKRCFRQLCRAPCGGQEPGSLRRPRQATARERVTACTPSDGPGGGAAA

Mu-type opioid receptor = Mu-type opioid receptor (Rattus norvegicus, UniProt P33535); assay: Binding affinity against mu-opioid receptor by using [3H]DAGO as radioligand in rat brain; type: tissue-based
Mu-type opioid receptor, sequence (P33535 whole entry): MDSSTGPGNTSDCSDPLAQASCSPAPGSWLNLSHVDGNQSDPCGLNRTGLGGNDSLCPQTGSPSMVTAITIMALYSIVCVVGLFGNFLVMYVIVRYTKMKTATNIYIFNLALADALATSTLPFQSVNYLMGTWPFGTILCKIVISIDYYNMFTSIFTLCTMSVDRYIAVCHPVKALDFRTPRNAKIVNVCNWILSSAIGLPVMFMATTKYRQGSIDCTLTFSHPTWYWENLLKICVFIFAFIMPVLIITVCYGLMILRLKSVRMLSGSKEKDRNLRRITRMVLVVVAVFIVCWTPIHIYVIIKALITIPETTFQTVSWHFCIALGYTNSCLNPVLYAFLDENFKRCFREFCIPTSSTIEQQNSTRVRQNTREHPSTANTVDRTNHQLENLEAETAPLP

Mus musculus [3] = assay: In vivo antinociceptive effect in mice by PBQ writhing test upon subcutaneous administration; Range is (1.64-3.24); type: functional; conditions: sc
Mus musculus [4] = assay: In vivo antinociceptive effect in mice by PBQ writhing test upon subcutaneous administration: Range is (0.39-0.59); type: functional; conditions: sc
Mus musculus [5] = assay: In vivo antinociceptive effect in mice by PBQ writhing test upon subcutaneous administration; Range is (0.52-0.741); type: functional; conditions: sc

Compound	ED50 (Mus musculus [1]) [mg/kg]	pIC50 (Cavia porcellus)	pKi [2]	pKi (Mu-type opioid receptor)	ED50 (Mus musculus [3]) [mg/kg]	ED50 (Mus musculus [4]) [mg/kg]	ED50 (Mus musculus [5]) [mg/kg]
C[N+](C)(C)CCCC[C@H](NC(=O)[C@H](Cc1ccccc1)NC(=O)[C@@H](CCCNC(=N)N)NC(=O)[C@@H](N)Cc1ccc(O)cc1)C(N)=O	1.18	7.04	5.45	8.95	–	–	–
C[N+](C)(C)CC[C@H](NC(=O)[C@H](Cc1ccccc1)NC(=O)[C@H](CCCNC(=N)N)NC(=O)[C@H](Cc1ccc(O)cc1)[N+](C)(C)C)C(N)=O	–	5.51	< 4.00	5.89	–	–	–
C[N+](C)(C)CC[C@H](NC(=O)[C@H](Cc1ccccc1)NC(=O)[C@H](CCCN=C(N)N)NC(=O)[C@@H](N)Cc1ccc(O)cc1)C(N)=O	–	6.90	5.23	8.12	–	–	–
C[N+](C)(C)CCC[C@H](NC(=O)[C@H](Cc1ccccc1)NC(=O)[C@@H](CCCN=C(N)N)NC(=O)[C@@H](N)Cc1ccc(O)cc1)C(N)=O	–	6.89	6.35	8.63	2.3	–	–
C[N+](C)(C)[C@@H](Cc1ccc(O)cc1)C(=O)N[C@H](CCCN=C(N)N)C(=O)N[C@@H](Cc1ccccc1)C(=O)N[C@@H](CCCN)C(N)=O	–	< 4.00	< 4.00	5.72	–	–	–
NCCCC[C@H](NC(=O)[C@H](Cc1ccccc1)NC(=O)[C@@H](CCCN=C(N)N)NC(=O)[C@@H](N)Cc1ccc(O)cc1)C(N)=O	–	7.30	5.63	9.42	–	0.47	–
C[N+](C)(C)[C@@H](Cc1ccc(O)cc1)C(=O)N[C@H](CCCN=C(N)N)C(=O)N[C@@H](Cc1ccccc1)C(=O)N[C@@H](CCCCN)C(N)=O	–	5.61	< 4.00	6.68	–	–	–
NC(=O)[C@H](CCNC(=O)[C@H](Cc1ccccc1)NC(=O)[C@H](CCCN=C(N)N)NC(=O)[C@@H](N)Cc1ccc(O)cc1)NC(=O)[C@H](Cc1ccccc1)NC(=O)[C@H](CCCN=C(N)N)NC(=O)[C@@H](N)Cc1ccc(O)cc1 (HELM PEPTIDE1{Y.R.F.[Dab].[am]}|PEPTIDE2{Y.R.F}$PEPTIDE1,PEPTIDE2,4:R3-3:R2$$$V2.0)	–	7.85	6.30	9.29	–	–	0.61
